Experimental findings from US8575145B2, “Triazolopyridine compounds as PIM kinase inhibitors” (Array BioPharma Inc., priority 2008, dated 2013) are described below.

SMILES strings stand for the structures. Where a name gives a salt, the structure may show the parent alone. Read-outs that look alike come from different tables or passages of the source.

One experiment addresses PIM-1 (Homo sapiens (Human), UniProt P11309). Put plainly: PIM-1 Enzyme Assay. The format is biochemical. How it is done: The amount of radiolabeled product is then measured by liquid scintillation counting. The final buffer conditions were as follows: 20 mM K^+MOPS, pH 7.4, 10 mM MgCl2, 0.005% Tween-20, 1 mM DTT. […] Incubations were carried out for 60 min at 22° C. and quenched with 75 μL of 200 mM H3PO4, filtered through a Whatman P81 plate and washed (1×200 μL and 5×100 μL ) with 200 mM H3PO4. Liquid scintillation cocktail (50 μL ) was then added per well, and the plate was counted for 30 s/well using a TopCount NXT.
One-μL aliquots of these were then transferred to the assay mixtures above to give a final concentration of DMSO of 2%. […] For each plate, percent of control (POC) values were calculated for each well. IC50's were estimated from the POC's using a standard 4-parameter logistic model. The IC50 is defined as the concentration of inhibitor at which the POC equals 50 for the fitted curve.

Experiment [1] has as its target GST-tagged recombinant full-length human PIM-2 (Homo sapiens (Human), UniProt Q9P1W9). Put plainly: PIM-2 Enzyme Assay.
Where [2] appears, read: read-out: PIM-2 IC50, 4 μM ATP, […] PIM-2.
[3] abbreviates: read-out: PIM-2 IC50, 4 μM ATP, […] PIM-2, dihydrochloride.

Sequence of GST-tagged recombinant full-length human PIM-2 (Q9P1W9 whole entry): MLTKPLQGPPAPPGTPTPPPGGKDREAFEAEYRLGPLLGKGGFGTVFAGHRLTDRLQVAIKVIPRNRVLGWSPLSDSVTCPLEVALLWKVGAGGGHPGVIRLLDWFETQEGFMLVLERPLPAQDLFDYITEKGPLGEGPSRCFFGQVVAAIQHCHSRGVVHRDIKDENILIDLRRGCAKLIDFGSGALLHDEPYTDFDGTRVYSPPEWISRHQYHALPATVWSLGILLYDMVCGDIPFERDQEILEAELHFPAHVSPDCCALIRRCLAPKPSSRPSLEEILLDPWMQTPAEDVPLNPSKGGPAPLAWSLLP
Sequence of PIM-1 (P11309 whole entry, species assumed): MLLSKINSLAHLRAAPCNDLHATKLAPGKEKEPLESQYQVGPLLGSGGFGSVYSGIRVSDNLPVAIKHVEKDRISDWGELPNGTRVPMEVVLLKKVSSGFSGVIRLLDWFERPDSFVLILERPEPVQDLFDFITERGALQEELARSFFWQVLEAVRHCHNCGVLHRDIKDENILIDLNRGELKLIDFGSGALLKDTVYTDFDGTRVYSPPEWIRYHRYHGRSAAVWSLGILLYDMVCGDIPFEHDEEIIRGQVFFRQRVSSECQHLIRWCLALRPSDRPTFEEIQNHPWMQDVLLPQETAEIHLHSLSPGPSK

Regarding `CC(C)(CN)COc1c(Br)ccc2ccc(-c3nnc4ccccn34)nc12` [Example 58, 3-(2-([1,2,4]triazolo[4,3-a]pyridin-3-yl)-7-bromoquinolin-8-yloxy)-2,2-dimethylpropan-1-amine dihydrochloride], the IC50 against PIM-1 worked out at 10 nM; in experiment [1] (setting [2]), 204 nM.
In the case of `Fc1ccn2c(-c3ccc4cccc(OC5CCNCC5F)c4n3)nnc2c1` (stereo not drawn) [Example 60, cis-2-(7-fluoro-[1,2,4]triazolo[4,3-a]pyridin-3-yl)-8-3-fluoropiperidin-4-yloxy)quinoline], the IC50 on PIM-1 (35 μM ATP, 0.25 nM PIM-1) was 26 nM; in experiment [1] (setting [2]), 1760 nM.
For the molecule `CCC(CC)(CO)COc1cccc2ccc(-c3nnc4ccccn34)nc12` [Example 131], the IC50 in experiment [1] (setting [2]) turned out to be 1000 nM.
For `c1cc(Oc2ccncc2)c2nc(-c3nnc4ccccn34)ccc2c1` [Example 74, 2-([1,2,4]triazolo[4,3-a]pyridin-3-yl)-8-(pyridin-4-yloxy)quinoline], the 50% inhibitory concentration (IC50) was determined as 151 nM against PIM-1 (35 μM ATP, 0.25 nM PIM-1) and 1990 nM in experiment [1] (setting [2]).
`FC1CNCCC1Oc1cccc2ccc(-c3nnc4ccccn34)nc12` (single isomer, unassigned) [Example 95, 2-([1,2,4]triazolo[4,3-a]pyridin-3-yl)-8-((cis)-3-fluoropiperidin-4-yloxy)quinoline dihydrochloride]: the concentration for half-maximal inhibition (IC50) against PIM-1 (dihydrochloride) amounted to 9.8 nM; in experiment [1] (setting [3]), 482 nM.
`Fc1cc(OC2CCNCC2(F)F)c2nc(-c3nnc4ccccn34)ccc2c1` (stereo not shown) [Example 93, 2-([1,2,4]triazolo[4,3-a]pyridin-3-yl)-8-(3,3-difluoropiperidin-4-yloxy)-6-fluoroquinoline dihydrochloride]: the half-inhibitory concentration (IC50) on PIM-1 (35 μM ATP, 0.25 nM PIM-1) was 4.4 nM; in experiment [1] (setting [2]), 506 nM.
For `COc1ccc2nnc(-c3ccc4cccc(OCC5(F)CCNCC5)c4n3)n2c1` [Example 109, 8((4-fluoropiperidin-4-yl)methoxy)-2-(6-methoxy-[1,2,4]triazolo[4,3-a]pyridin-3-yl)quinoline dihydrochloride] the same measures were 4.7 nM and 384 nM.
With `FC1CNCCC1Oc1cccc2ccc(-c3nnc4ccccn34)nc12` (single isomer, unassigned) [Example 94, 2-([1,2,4]triazolo[4,3-a]pyridin-3-yl)-8-((cis)-3-fluoropiperidin-4-yloxy)quinoline dihydrochloride], the half-inhibitory concentration (IC50) was determined as 19.4 nM at PIM-1 (dihydrochloride) and 1000 nM in experiment [1] (setting [3]).
In the case of `CC(C)(CN)COc1cc(F)cc2ccc(-c3nnc4ccccn34)nc12` [Example 39, 3-(2-([1,2,4]triazolo[4,3-a]pyridin-3-yl)-6-fluoroquinolin-8-yloxy)-2,2-dimethylpropan-1-amine], the half-maximal inhibitory concentration (IC50) on PIM-1 (35 μM ATP, 0.25 nM PIM-1) came to 0.55 nM; in experiment [1] (setting [2]) it was 26 nM.
Turning to `COC1(COc2cc(F)cc3ccc(-c4nnc5ccccn45)nc23)CCCN(CCO)CC1` (stereo not shown) [Example 115, 2-(4-42-([1,2,4]triazolo[4,3-a]pyridin-3-yl)-6-fluoroquinolin-8-yloxy)methyl)-4-methoxyazepan-1-yl)ethanol dihydrochloride], the IC50 at PIM-1 (35 μM ATP, 0.25 nM PIM-1) was determined as 1.4 nM; in experiment [1] (setting [2]), 222 nM.
As to `CC(C)(CCN)COc1cccc2ccc(-c3nnc4ccccn34)nc12` [Example 132, 4-(2-([1,2,4]triazolo[4,3-a]pyridin-3-yl)quinolin-8-yloxy)-3,3-dimethylbutan-1-amine], the IC50 in experiment [1] (setting [2]) turned out to be 76.5 nM.
For the molecule `CC(C)C1(COc2cccc3ccc(-c4nnc5ccccn45)nc23)CCNCC1` [Example 70, 2-([1,2,4]triazolo[4,3-a]pyridin-3-yl)-8-((4-isopropylpiperidin-4-yl)methoxy)quinoline dihydrochloride], the figures for the IC50 (against PIM-1; in experiment [1] (setting [2])) were 0.75 nM and 67 nM, respectively.
For `F[C@@H]1CNCC[C@@H]1Oc1cccc2ccc(-c3nnc4ccc(-c5ccccc5)cn34)nc12` (relative stereo) [Example 82, 8-((cis)-3-fluoropiperidin-4-yloxy)-2-(6-phenyl-[1,2,4]triazolo[4,3-a]pyridin-3-yl)quinoline dihydrochloride] the same measures were 3 nM and 1040 nM.
With `OCCN1CCC(F)(COc2cccc3ccc(-c4nnc5ccccn45)nc23)CC1` [Example 85, 2-(4-((2-([1,2,4]triazolo[4,3-a]pyridin-3-yl)quinolin-8-yloxy)methyl)-4-fluoropiperidin-1-yl)ethanol dihydrochloride], the IC50 was 2 nM at PIM-1 (35 μM ATP, 0.25 nM PIM-1) and 105 nM in experiment [1] (read-out: PIM-2 IC50).
`CC(C)(C)COc1cccc2ccc(-c3nnc4ccccn34)nc12` [Example 23, 2-([1,2,4]triazolo[4,3-a]pyridin-3-yl)-8-(neopentyloxy)quinoline]: the IC50 in experiment [1] (setting [2]) stood at 144 nM.
As to `FC1(COc2cccc3ccc(-c4nnc5ccccn45)nc23)CCCNC1` (stereo not shown) [Example 133, 2-([1,2,4]triazolo[4,3-a]pyridin-3-yl)-8-((3-fluoropiperidin-3-yl)methoxy)quinoline], the IC50 was 1.6 nM against PIM-1 (35 μM ATP, 0.25 nM PIM-1) and 142 nM in experiment [1] (setting [2]).
The matching figures for `F[C@@H]1CNCC[C@@H]1Oc1cccc2ccc(-c3nnc4cc(Cl)ccn34)nc12` [Example 124, 2-(7-chloro-[1,2,4]triazolo[4,3-a]pyridin-3-yl)-8-((3R,4S)-3-fluoropiperidin-4-yloxy)quinoline]: 31 nM and 1000 nM.
As to `FC1(COc2cccc3ccc(-c4nnc5ccc(Br)cn45)nc23)CCNCC1` [Example 77, 2-(6-bromo-[1,2,4]triazolo[4,3-a]pyridin-3-yl)-8-((4-fluoropiperidin-4-yl)methoxy)-quinoline dihydrochloride], the half-maximal inhibitory concentration (IC50) is 17 nM against PIM-1 (35 μM ATP, 0.25 nM PIM-1) and 1390 nM in experiment [1] (read-out: PIM-2 IC50).
With `FC1CNCCC1Oc1cccc2ccc(-c3nnc4ccccn34)nc12` (single isomer, unassigned) [Example 97, 2-([1,2,4]triazolo[4,3-a]pyridin-3-yl)-8-((trans)-3-fluoropiperidin-4-yloxy)quinoline dihydrochloride], the IC50 at PIM-1 (dihydrochloride) amounted to 49 nM; in experiment [1] (setting [3]), 1000 nM.
As to `CC(C)(CNC(=O)CF)COc1cccc2ccc(-c3nnc4ccccn34)nc12` [Example 134, N-(3-(2-([1,2,4]triazolo[4,3-a]pyridin-3-yl)quinolin-8-yloxy)-2,2-dimethylpropyl)-2-fluoroacetamide], the IC50 against PIM-1 (35 μM ATP, 0.25 nM PIM-1) was determined as 10.1 nM; in experiment [1] (setting [2]), 952 nM.
For the molecule `c1cc(OCC2(CC3CC3)CCNCC2)c2nc(-c3nnc4ccccn34)ccc2c1` [Example 69, 2-([1,2,4]triazolo[4,3-a]pyridin-3-yl)-8-44-(cyclopropylmethyl)piperidin-4-yl)methoxy)quinoline dihydrochloride], the IC50 against PIM-1 turned out to be 1.6 nM; in experiment [1] (setting [2]), 95 nM.
`NCC1(COc2cccc3ccc(-c4nnc5ccccn45)nc23)CCCC1` [Example 129, (1-((2-([1,2,4]triazolo[4,3-a]pyridin-3-yl)quinolin-8-yloxy)methyl)cyclopentyl)methanamine]: the IC50 against PIM-1 (35 μM ATP, 0.25 nM PIM-1) came to 4.9 nM; in experiment [1] (setting [2]) it was 1000 nM.
For `c1cncc(COc2cccc3ccc(-c4nnc5ccccn45)nc23)c1` [Example 44, 2-([1,2,4]triazolo[4,3-a]pyridin-3-yl)-8-(pyridin-3-ylmethoxy)quinoline] the same measures were 63 nM and 7470 nM.
As for `OC1(COc2cccc3ccc(-c4nnc5ccccn45)nc23)CCCNCC1` (stereo not shown) [Example 116, 4-((2-([1,2,4]triazolo[4,3-a]pyridin-3-yl)quinolin-8-yloxy)methyl)azepan-4-ol bis-trifluoroacetate], the IC50 at PIM-1 (35 μM ATP, 0.25 nM PIM-1) is 11.8 nM; in experiment [1] (read-out: PIM-2 IC50), 1000 nM.
Consider `CC(C)(CNCC(F)F)COc1cccc2ccc(-c3nnc4ccccn34)nc12` [Example 135, 3-(2-([1,2,4]triazolo[4,3-a]pyridin-3-yl)quinolin-8-yloxy)-N-(2,2-difluoroethyl)-2,2-dimethylpropan-1-amine hydrochloride], for which the IC50 against PIM-1 (35 μM ATP, 0.25 nM PIM-1) was 12.6 nM; in experiment [1] (setting [2]) it was 506 nM.
The matching figures for `CN1CCC(F)C(Oc2cccc3ccc(-c4nnc5ccccn45)nc23)CC1` (stereo not shown) [Example 119]: 1.3 nM and 574 nM.
The matching figures for `COC1(COc2cccc3ccc(-c4nnc5ccccn45)nc23)CCCNCC1` (stereo not shown) [Example 117, 2-([1,2,4]triazolo[4,3-a]pyridin-3-yl)-8-((4-methoxyazepan-4-yl)methoxy)quinoline dihydrochloride]: 1 nM and 91.5 nM.
Consider `CN(C)CC(C)(C)COc1cccc2ccc(-c3nnc4ccccn34)nc12` [Example 21, 3-(2-([1,2,4]triazolo[4,3-a]pyridin-3-yl)quinolin-8-yloxy)-N,N,2,2-tetramethylpropan-1-amine], for which the IC50 in experiment [1] (setting [2]) amounted to 1350 nM.
Consider `N[C@H]1CC[C@@H](Oc2cccc3ccc(-c4nnc5ccccn45)nc23)CC1` [Example 42, (cis)-4-(2-([1,2,4]triazolo[4,3-a]pyridin-3-yl)quinolin-8-yloxy)cyclohexanamine], for which, in experiment [1] (PIM-2 IC50 (nM), 4 μM ATP, […] PIM-2), the IC50 turned out to be 22 nM.
For `CC(C)(CNCC(F)(F)F)COc1cccc2ccc(-c3nnc4ccccn34)nc12` [Example 136, 3-(2-([1,2,4]triazolo[4,3-a]pyridin-3-yl)quinolin-8-yloxy)-2,2-dimethyl-N-(2,2,2-trifluoroethyl)propan-1-amine], the IC50 in experiment [1] (setting [2]) came out at 362 nM.
On the same count and under the same terms, the same measure for `NCC(F)(F)COc1cccc2ccc(-c3nnc4ccccn34)nc12` [Example 41, 3-(2-([1,2,4]triazolo[4,3-a]pyridin-3-yl)quinolin-8-yloxy)-2,2-difluoropropan-1-amine]: 182 nM.
